Source: PMC8872362, “Balanced Polymorphism at the Pgm-1 Locus of the Pompeii Worm Alvinella pompejana and Its Variant Adaptability Is Only Governed by Two QE Mutations at Linked Sites” (Genes, 2022)
Like-named read-outs stand apart in the source and are kept apart here.

Tested on: PGM-1 (recombinant isoform PGM100, E155 E190)
Assay: G6PD-coupled NADPH assay, Lineweaver-Burk
Format: biochemical, Alvinella pompejana
Details: 50 mM Tris-HCl pH 7.4, 0.5 M MgCl2 (so in the source), 1.2 mM NADP, 0.1 µM G6PD, G1P 0.2-60 mM, 17 °C
Text: G6PD-coupled NADPH assay, Lineweaver-Burk on PGM-1 (recombinant isoform PGM100, E155 E190)

## O=P(O)(O)O[C@H]1O[C@H](CO)[C@@H](O)[C@H](O)[C@H]1O [G1P, α-D-glucose 1-phosphate]
PGM78, natural allele QE, read-out: PGM 78 / 1st Transition
  Km: 0.76 ± 0.07 mM
PGM90, natural allele EQ, read-out: PGM 90 / 1st Transition
  Km: 6.25 ± 0.35 mM
read-out: PGM 100 / 1st Transition
  Km: 5.22 ± 0.74 mM
